Activity calls are given as the source filed them. The rule behind the calls is not given here.
Key:
[1] = Inhibition of pig skin LOX incubated for 45 mins by Amplex red dye based and HRP coupled assay; design: species or system Sus scrofa
[2] = target: T1, Protein-lysine 6-oxidase (Homo sapiens) (UniProt P28300); settings: MDA-MB-231, 1 mM
T1 sequence (whole entry): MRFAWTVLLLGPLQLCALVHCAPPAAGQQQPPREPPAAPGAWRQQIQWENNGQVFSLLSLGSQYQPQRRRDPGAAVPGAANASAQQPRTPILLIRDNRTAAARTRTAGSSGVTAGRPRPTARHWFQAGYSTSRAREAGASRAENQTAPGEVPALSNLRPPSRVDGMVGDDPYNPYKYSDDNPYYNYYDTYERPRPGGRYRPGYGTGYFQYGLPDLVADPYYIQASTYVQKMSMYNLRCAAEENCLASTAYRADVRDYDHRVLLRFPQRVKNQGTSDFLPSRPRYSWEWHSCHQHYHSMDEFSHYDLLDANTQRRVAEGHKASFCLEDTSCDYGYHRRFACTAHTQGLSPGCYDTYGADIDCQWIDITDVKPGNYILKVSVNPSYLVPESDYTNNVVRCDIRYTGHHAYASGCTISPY

`NCc1ncc(S(=O)(=O)c2ccc3ccccc3c2)s1` gave an IC50 [1] of 1400 nM.
With `N#CCCN` the inhibition [2] was “Active”.

From ChEMBL document CHEMBL4420079, “Methylamine derivatives as lysysl oxidase inhibitors for the treatment of cancer” (2017)
